Results from patent USRE30241E, “Esters of 3-(hydroxy or hydroxymethyl)-4-hydroxyphenyl aminomethyl ketones” (Sterling Drug Inc., priority 1970, dated 1980).
Where two headings read alike, the source gives them in different places.

Legend:
[1] = system: carbachol- or histamine-induced bronchoconstriction; assay: Bronchodilator Test Method I, anesthetized dog, intravenous activity; assay type: in vivo; settings: Canis lupus familiaris, read-out: Bronchodilatation; for inhibition in vivo at 0.005 mg/kg: 5 mcg/kg i.v.; for inhibition in vivo at 0.02 mg/kg: 20 mcg/kg i.v.; for inhibition in vivo at 0.04 mg/kg: 40 mcg/kg i.v.; for inhibition in vivo at 0.008 mg/kg: 8 mcg/kg i.v.; for inhibition in vivo at 0.032 mg/kg: 32 mcg/kg i.v.; for inhibition in vivo at 0.128 mg/kg: 128 mcg/kg i.v.
How it was run: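 Pentobarbital-anesthetized (30 mg/kg i.v.), open-chest, artificially ventilated dogs were given i.v. carbachol (4-6 µg/kg) or histamine diphosphate (35-45 µg/kg). Test compound was given i.v. mixed with, after, or 1-10 min before the constrictor.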

[2] = system: carbachol- or histamine-induced bronchoconstriction; assay: Bronchodilator Test Method I, anesthetized dog, intraduodenal activity; assay type: in vivo; settings: Canis lupus familiaris, read-out: Bronchodilation; for inhibition in vivo at 0.02 mg/kg: 20 mcg/kg (salt) intraduodenal; for inhibition in vivo at 0.08 mg/kg: 80 mcg/kg (salt) intraduodenal; for inhibition in vivo at 0.16 mg/kg: 160 mcg/kg (salt) intraduodenal; for inhibition in vivo at 0.032 mg/kg: 32 mcg/kg (salt) intraduodenal; for inhibition in vivo at 0.128 mg/kg: 128 mcg/kg (salt) intraduodenal
How it was run: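 Pentobarbital-anesthetized (30 mg/kg i.v.) open-chest dogs of 9-18 kg, artificially ventilated; airway pressure recorded via tracheal cannula transducer. Test solution injected intraduodenally; from 5 min, i.v. carbachol (4-6 μg/kg) or histamine diphosphate (35-45 μg/kg) challenges every 30-60 min gauged degree and duration of bronchodilation.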

[3] = system: guinea pig bronchioles constricted by carbachol; assay: Bronchodilator Test Method II, in vitro perfused guinea pig lung; settings: for ED50: carbachol (Doryl) 1:5 million
Experimental: In this method bronchodilator activity in vitro was determined by testing the effect of graded doses of the test compounds on guinea pig bronchioles constricted by carbachol, using the technique reported by Sollman and von Oettingen, Proc. Soc, Exp. Biol. Med., 25,692 (1928) as modified by Tainter, Pedden, and James, J. Pharm. Exp. Ther., 51, 371 (1934) and by Luduena, von Euler, Tullar, and Lands, Arch. intern. Pharmacol., III, 392 (1957).

heart rate = assay: Cardiovascular studies: effect on the heart rate in the anesthetized dog; assay type: in vivo
How it was run: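 Anesthetized dogs, mostly spontaneously breathing, some open-chest, given rapid intravenous injections. Heart rate by electrocardiograph with blood pressure recorded simultaneously, every 0.5-1 minute for 10 minutes then every 2-5 minutes until recovery; several doses or compounds sometimes tested alternately in one dog.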

diastolic blood pressure = assay: Effect on diastolic blood pressure in the anesthetized dog; assay type: in vivo
Experimental: The effect of a rapid intravenous injection on the heart rate the heart rate was conducted in anesthetized dogs under normal respiration. A few open-chest dogs were also tested. Increase in heart rate was measured by using an electrocardiograph attached to the dog. Readings were taken every 0.5-1 minute for the first 10 minutes and every 2-5 minutes thereafter until recovery. In some cases, several doses and more than one compound were tested alternately in the same dog. The blood pressure effect was simultaneously recorded.

COc1ccc(C(=O)Oc2ccc(C(O)CNC(C)(C)C)cc2OC(C)=O)cc1 (stereo not drawn) [Example 145, 3-acetoxy-4-(p-anisoyloxy)-alpha-(tert-butylaminomethyl)benzyl alcohol methanesulfonate]
inhibition in vivo at 0.005 mg/kg ([1]; 5 min, 5 min): 65% | inhibition in vivo at 0.02 mg/kg ([1]; 5 min, 5 min): 87% | inhibition in vivo at 0.04 mg/kg ([1]; 5 min, 5 min): 98% | inhibition in vivo at 0.005 mg/kg ([1]; 0.5 h, 30 min): 30% | inhibition in vivo at 0.02 mg/kg ([1]; 0.5 h, 30 min): 45% | inhibition in vivo at 0.04 mg/kg ([1]; 0.5 h, 30 min): 70% | inhibition in vivo at 0.005 mg/kg ([1]; 1 h, 60 min): 24% | inhibition in vivo at 0.02 mg/kg ([1]; 1 h, 60 min): 35% | inhibition in vivo at 0.04 mg/kg ([1]; 1 h, 60 min): 68% | inhibition in vivo at 0.005 mg/kg ([1]; 2 h, 120 min): 22% | inhibition in vivo at 0.02 mg/kg ([1]; 2 h, 120 min): 27% | inhibition in vivo at 0.04 mg/kg ([1]; 2 h, 120 min): 42% | inhibition in vivo at 0.04 mg/kg ([1]; 3 h, 180 min): 38% | inhibition in vivo at 0.04 mg/kg ([1]; 4 h, 240 min): 24% | inhibition in vivo at 0.02 mg/kg ([2]; 5 min, 5 min): 33% | inhibition in vivo at 0.08 mg/kg ([2]; 5 min, 5 min): 53% | inhibition in vivo at 0.16 mg/kg ([2]; 5 min, 5 min): 82% | inhibition in vivo at 0.02 mg/kg ([2]; 0.5 h, 30 min): 32% | inhibition in vivo at 0.08 mg/kg ([2]; 0.5 h, 30 min): 48% | inhibition in vivo at 0.16 mg/kg ([2]; 0.5 h, 30 min): 81% | inhibition in vivo at 0.02 mg/kg ([2]; 1 h, 60 min): 32% | inhibition in vivo at 0.08 mg/kg ([2]; 1 h, 60 min): 45% | inhibition in vivo at 0.16 mg/kg ([2]; 1 h, 60 min): 81% | inhibition in vivo at 0.02 mg/kg ([2]; 2 h, 120 min): 33% | inhibition in vivo at 0.08 mg/kg ([2]; 2 h, 120 min): 49% | inhibition in vivo at 0.16 mg/kg ([2]; 2 h, 120 min): 63% | inhibition in vivo at 0.02 mg/kg ([2]; 3 h, 180 min): 29% | inhibition in vivo at 0.08 mg/kg ([2]; 3 h, 180 min): 32% | inhibition in vivo at 0.16 mg/kg ([2]; 3 h, 180 min): 48% | inhibition in vivo at 0.02 mg/kg ([2]; 4 h, 240 min): 25% | inhibition in vivo at 0.08 mg/kg ([2]; 4 h, 240 min): 30% | inhibition in vivo at 0.16 mg/kg ([2]; 4 h, 240 min): 32% | inhibition in vivo at 0.02 mg/kg ([2]; 5 h, 300 min): 23% | inhibition in vivo at 0.16 mg/kg ([2]; 5 h, 300 min): 37% | ED50 [3]: 0.25 µg (base) | Duration, Mean ([3]; dose 1 mcg (base)): > 72 min | Mean Maximal Increase in the Heart Rate (heart rate; 1.25 mcg/kg (salt) i.v.): 9% | Mean Maximal Increase in the Heart Rate (heart rate; 5.0 mcg/kg (salt) i.v.): 13% | Mean Maximal Increase in the Heart Rate (heart rate; 20 mcg/kg (salt) i.v.): 27% | Mean Decrease in Diastolic Blood Pressure (diastolic blood pressure; 1.25 meg/kg (salt) i.v.): 7% | Mean Decrease in Diastolic Blood Pressure (diastolic blood pressure; 5.0 meg/kg (salt) i.v.): 12% | Mean Decrease in Diastolic Blood Pressure (diastolic blood pressure; 20 meg/kg (salt) i.v.): 20%

COc1ccc(C(=O)Oc2ccc(C(O)CNC(C)(C)C)cc2COC(C)=O)cc1 (stereo not drawn) [Example 151, 3-(acetoxymethyl)-4-(p-anisoyloxy)-alpha-(tert-butylaminomethyl)benzyl alcohol]
inhibition in vivo at 0.008 mg/kg ([1]; 5 min, 5 min): 43% | inhibition in vivo at 0.032 mg/kg ([1]; 5 min, 5 min): 54% | inhibition in vivo at 0.128 mg/kg ([1]; 5 min, 5 min): 85% | inhibition in vivo at 0.008 mg/kg ([1]; 0.5 h, 30 min): 33% | inhibition in vivo at 0.032 mg/kg ([1]; 0.5 h, 30 min): 46% | inhibition in vivo at 0.128 mg/kg ([1]; 0.5 h, 30 min): 81% | inhibition in vivo at 0.008 mg/kg ([1]; 1 h, 60 min): 50% | inhibition in vivo at 0.032 mg/kg ([1]; 1 h, 60 min): 41% | inhibition in vivo at 0.128 mg/kg ([1]; 1 h, 60 min): 81% | inhibition in vivo at 0.008 mg/kg ([1]; 2 h, 120 min): 43% | inhibition in vivo at 0.032 mg/kg ([1]; 2 h, 120 min): 54% | inhibition in vivo at 0.128 mg/kg ([1]; 2 h, 120 min): 73% | inhibition in vivo at 0.008 mg/kg ([1]; 3 h, 180 min): 30% | inhibition in vivo at 0.032 mg/kg ([1]; 3 h, 180 min): 21% | inhibition in vivo at 0.128 mg/kg ([1]; 3 h, 180 min): 69% | inhibition in vivo at 0.032 mg/kg ([1]; 4 h, 240 min): 18% | inhibition in vivo at 0.128 mg/kg ([1]; 4 h, 240 min): 64% | inhibition in vivo at 0.008 mg/kg ([1]; 4.5 h, 270 min): 20% | inhibition in vivo at 0.128 mg/kg ([1]; 4.5 h, 270 min): 52% | inhibition in vivo at 0.032 mg/kg ([2]; 5 min, 5 min): 24% | inhibition in vivo at 0.128 mg/kg ([2]; 5 min, 5 min): 54% | inhibition in vivo at 0.032 mg/kg ([2]; 0.5 h, 30 min): 40% | inhibition in vivo at 0.128 mg/kg ([2]; 0.5 h, 30 min): 63% | inhibition in vivo at 0.032 mg/kg ([2]; 1 h, 60 min): 36% | inhibition in vivo at 0.128 mg/kg ([2]; 1 h, 60 min): 66% | inhibition in vivo at 0.032 mg/kg ([2]; 2 h, 120 min): 36% | inhibition in vivo at 0.128 mg/kg ([2]; 2 h, 120 min): 66% | inhibition in vivo at 0.032 mg/kg ([2]; 3 h, 180 min): 28% | inhibition in vivo at 0.128 mg/kg ([2]; 3 h, 180 min): 66% | inhibition in vivo at 0.032 mg/kg ([2]; 5 h, 300 min): 20% | inhibition in vivo at 0.128 mg/kg ([2]; 5 h, 300 min): 43% | ED50 [3]: 5.1 µg (base) | Duration, Mean ([3]; dose 10 mcg (base)): 67.3 ± 33.7 min | Mean Maximal Increase in the Heart Rate (heart rate; 32 mcg/kg (salt) i.v.): 18 Beats/Minute | Mean Maximal Increase in the Heart Rate (heart rate; 128 mcg/kg (salt) i.v.): 24 Beats/Minute | Mean Decrease in Diastolic Blood Pressure (diastolic blood pressure; 32 meg/kg (salt) i.v.): 10% | Mean Decrease in Diastolic Blood Pressure (diastolic blood pressure; 128 meg/kg (salt) i.v.): 10%
